Some test systems named below: HCT-15; SF-268; SW-620; CAKI-1; SK-MEL-28; COLO 205; PC-3; IGROV-1; LOX IMVI; HCC 2998; HCT-116; RXF 393; A549; MDA-N; OVCAR-5; OVCAR-4; K562; RPMI-8226; HOP-62; SK-MEL-5.
What all share (assay): NCI tumour cell line growth inhibition, 48 h

The structures appear in SMILES notation.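 How tested: cells in 96-well plates exposed to compound for 48 hours at five concentrations. GI50 is the concentration that inhibits growth by half.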 Active and inactive are the calls of the source. Rule as the data show it: active = GI50 up to about 1.1 µM and inactive = higher.

As for `O=C1Nc2ccc(Br)cc2C1=Nc1cccnc1`, the GI50 in the experiment on HCT-15 is 22.1 µM; with SF-268 it was 27.7 µM (inactive); in the experiment on SW-620, 17.8 µM (inactive); with CAKI-1, 20.7 µM (inactive); with SK-MEL-28, 19.5 µM (inactive); in the experiment with COLO 205 it was 67.3 µM (inactive). Moreover, the GI50 in the experiment on PC-3 is 18.1 µM (inactive); with IGROV-1, 19 µM (inactive); in the experiment with LOX IMVI, 15.7 µM (inactive); in the experiment on HCC 2998, 20.6 µM (inactive); in the experiment with HCT-116, 20.1 µM (inactive); with RXF 393, 15.2 µM (inactive). Also, the GI50 with A549 was 48.4 µM (inactive); with MDA-N, 17 µM (inactive); in the experiment on OVCAR-5, 29.3 µM (inactive); in the experiment on OVCAR-4 it was 7.23 µM (inactive); with K562, 20.1 µM (inactive); in the experiment with RPMI-8226 it was 21.4 µM (inactive). The figures for the GI50 in the experiment with HOP-62 and in the experiment on SK-MEL-5 were 25 µM (inactive) and 17.8 µM (inactive), respectively.

For the molecule `O=C(CCSC(CC(=O)c1ccc(Cl)cc1)c1ccc(Cl)cc1)Nc1ccc(Cl)cc1` (stereo not given), the GI50 with HCT-15 is 10.8 µM; in the experiment with SF-268, 15.2 µM (inactive); in the experiment on SW-620, 2.88 µM (inactive); in the experiment on CAKI-1, 18.4 µM (inactive); in the experiment on SK-MEL-28, 15.4 µM (inactive); in the experiment with COLO 205, 18.6 µM (inactive). For the same molecule, the GI50 with PC-3 is 14.1 µM (inactive); in the experiment with IGROV-1, 14.9 µM (inactive); in the experiment on LOX IMVI, 5.83 µM (inactive); in the experiment with HCC 2998, 14 µM (inactive); in the experiment on HCT-116, 5.86 µM (inactive); in the experiment on RXF 393, 14.9 µM (inactive). In addition, the GI50 in the experiment with A549 is 14.6 µM (inactive); in the experiment on MDA-N, 9.68 µM (inactive); with OVCAR-5 it was 16.4 µM (inactive); with OVCAR-4, 14.7 µM (inactive); in the experiment with K562, 4.06 µM (inactive); with RPMI-8226, 2.19 µM (inactive). In addition, the figures for the GI50 in the experiment on HOP-62 and in the experiment on SK-MEL-5 were 13.3 µM (inactive) and 15.9 µM (inactive), respectively.

`Oc1ccc(-c2cc(-c3cc(-c4ccc(O)cc4)no3)on2)cc1`: the GI50 was 1.98 µM in the experiment on HCT-15; 41.2 µM (inactive) with SF-268; > 30.3 µM (inactive) in the experiment on SW-620; 56.6 µM (inactive) in the experiment on CAKI-1; > 100 µM (inactive) in the experiment on SK-MEL-28; > 100 µM (inactive) in the experiment with COLO 205. Besides, the GI50 is 13.2 µM (inactive) in the experiment on PC-3; 43.7 µM (inactive) in the experiment with IGROV-1; 11.5 µM (inactive) with LOX IMVI; > 63.4 µM (inactive) with HCC 2998; 45.3 µM (inactive) in the experiment on HCT-116; > 100 µM (inactive) in the experiment on RXF 393. The GI50 in the experiment with A549 is 50 µM (inactive); in the experiment on MDA-N, 36.9 µM (inactive); with OVCAR-5 it was > 53.3 µM (inactive); in the experiment on OVCAR-4, > 100 µM (inactive); with K562, 1.75 µM (inactive); with RPMI-8226 it was 3.52 µM (inactive). For the same molecule, the GI50 in the experiment on HOP-62 is > 50.9 µM (inactive); with SK-MEL-5, 36.9 µM (inactive).

Regarding `Cc1cccc(/C=N/NC(=S)Nc2ccccc2)n1`, the GI50 with HCT-15 was 1.98 µM; in the experiment on SF-268 it was 3.31 µM (inactive); in the experiment with SW-620, 5.25 µM (inactive); in the experiment with CAKI-1 it was 5.19 µM (inactive); in the experiment with SK-MEL-28 it was 12.2 µM (inactive); in the experiment on COLO 205, 2.75 µM (inactive). In addition, the GI50 in the experiment on PC-3 is 6 µM (inactive); in the experiment with IGROV-1 it was 2.84 µM (inactive); in the experiment with LOX IMVI, 2.67 µM (inactive); in the experiment on HCC 2998, 5.64 µM (inactive); with HCT-116 it was 3.47 µM (inactive); in the experiment with RXF 393, 5.48 µM (inactive). The GI50 in the experiment on A549 was 5.61 µM (inactive); with MDA-N, 4 µM (inactive); in the experiment on OVCAR-5 it was 5.85 µM (inactive); in the experiment on OVCAR-4, 6.31 µM (inactive); in the experiment with K562 it was 4.1 µM (inactive); in the experiment on RPMI-8226 it was 3.48 µM (inactive). The GI50 was 2.93 µM (inactive) in the experiment on HOP-62 and 3.08 µM (inactive) in the experiment with SK-MEL-5.

On to `O=C(/C=C\Nc1ccccc1O)C(Cl)(Cl)Cl`, for which the GI50 with HCT-15 is 38.5 µM; with SF-268 it was > 100 µM (inactive); in the experiment with SW-620, > 100 µM (inactive); in the experiment on CAKI-1 it was 34.9 µM (inactive); in the experiment on SK-MEL-28, 43.1 µM (inactive); in the experiment on COLO 205, 48.3 µM (inactive). Further, the GI50 is 37.7 µM (inactive) in the experiment on PC-3; 43.4 µM (inactive) with IGROV-1; 31.8 µM (inactive) in the experiment on LOX IMVI; 26.3 µM (inactive) with HCC 2998; 37.8 µM (inactive) in the experiment on HCT-116; 33.5 µM (inactive) with RXF 393. In addition, the GI50 in the experiment on A549 is 48.2 µM (inactive); in the experiment on MDA-N, 25.3 µM (inactive); in the experiment with OVCAR-5 it was 77.4 µM (inactive); in the experiment with OVCAR-4, 39.1 µM (inactive); in the experiment on K562, 36.7 µM (inactive); in the experiment on RPMI-8226, 25.3 µM (inactive). Also, the results for the GI50 in the experiment with HOP-62 and in the experiment with SK-MEL-5 were 24.1 µM (inactive) and > 100 µM (inactive), respectively.

In the case of `CC1(C)OC(=O)N(c2ccccc2)C12C=Cc1cccc([N+](=O)[O-])c1O2` (stereo not given), the GI50 was 90.2 µM in the experiment with HCT-15; > 100 µM (inactive) in the experiment on SF-268; > 100 µM (inactive) with SW-620; > 100 µM (inactive) in the experiment with CAKI-1; 90.8 µM (inactive) in the experiment on SK-MEL-28; 45.1 µM (inactive) with COLO 205. Besides, the GI50 is 31 µM (inactive) with PC-3; 96.6 µM (inactive) with IGROV-1; 97.3 µM (inactive) with LOX IMVI; > 100 µM (inactive) in the experiment on HCC 2998; 67 µM (inactive) in the experiment with HCT-116; > 100 µM (inactive) in the experiment on RXF 393. Also, the GI50 with A549 was 79.1 µM (inactive); in the experiment on MDA-N, 42.5 µM (inactive); in the experiment on OVCAR-5 it was > 100 µM (inactive); in the experiment with OVCAR-4 it was 56.2 µM (inactive); in the experiment with K562, 35.1 µM (inactive); in the experiment with RPMI-8226 it was 53.3 µM (inactive). In addition, the GI50 is > 100 µM (inactive) with HOP-62 and 72.8 µM (inactive) with SK-MEL-5.

On to `Cc1ccc(CNNC(=O)c2cc[n+]([BH2-]C#N)cc2)cc1`, for which the GI50 in the experiment on HCT-15 was above 100 µM; with SF-268 it was > 100 µM (inactive); in the experiment with SW-620, > 100 µM (inactive); with CAKI-1 it was > 100 µM (inactive); in the experiment on SK-MEL-28, > 100 µM (inactive); in the experiment on COLO 205, > 100 µM (inactive). Moreover, the GI50 in the experiment on PC-3 was 84.9 µM (inactive); with IGROV-1, > 100 µM (inactive); in the experiment on LOX IMVI it was > 100 µM (inactive); with HCC 2998, > 100 µM (inactive); in the experiment on HCT-116, > 100 µM (inactive); with RXF 393, > 100 µM (inactive). Also, the GI50 was 95.7 µM (inactive) in the experiment on A549; > 100 µM (inactive) in the experiment on MDA-N; > 100 µM (inactive) in the experiment on OVCAR-5; > 100 µM (inactive) in the experiment with OVCAR-4; 49.2 µM (inactive) in the experiment with K562; > 100 µM (inactive) in the experiment on RPMI-8226. Moreover, the GI50 in the experiment on HOP-62 and in the experiment with SK-MEL-5 was > 100 µM (inactive) each time.

Source of the values: ChEMBL document CHEMBL1201862, “PubChem BioAssay data set” (2004).
